Test results reported in the NIST ThermoML archive (doi:10.1021/je300083m).
Numbers after ± are expanded uncertainties.

Experiment: mn = molality of the nth substance listed, in mol/kg
Conditions: 101 kPa, Liquid, m1 = 0.512

Row | Structure (SMILES) | mass density (298.15 K) [kg/m3] | mass density (303.15 K) [kg/m3] | mass density (308.15 K) [kg/m3] | mass density (313.15 K) [kg/m3] | mass density (318.15 K) [kg/m3] | mass density (323.15 K) [kg/m3]
1 | O=[N+]([O-])[O-].[K+] [potassium nitrate] + O | 1027.98 ± 0.22 | 1026.22 ± 0.22 | 1024.1 ± 0.21 | 1022.05 ± 0.21 | 1020.2 ± 0.21 | 1018.2 ± 0.2
2 | O=S(=O)([O-])[O-].[K+].[K+] [potassium sulfate] + O | 1063.81 ± 0.3 | 1062.02 ± 0.29 | 1060.06 ± 0.29 | 1057.74 ± 0.29 | 1055.14 ± 0.28 | 1052.95 ± 0.28
